From the supplement of paper PMC8671470

Experiments:
Details in all cases: 72 h
[1] = system: myeloid leukemia patient primary cells Pat.3; assay: area under dose-response curve (viability, 1 nM-10 uM) (fraction (0-1)); higher = more sensitive
Protocol: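 AUC (0–1, higher = more sensitive) of the 5-point dose–response (1 nM–10 µM, 72 h, CellTiter-Glo) in primary AML/CML patient mononuclear cells. 0.030103 is the floor for inactive compounds.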

[2] = system: myeloid leukemia patient primary cells Pat.7; assay: cell viability (% survival relative to DMSO control); higher = less cytotoxic
How it was run: (§1)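 Seventy compounds were pre-printed on 384-well plates at five tenfold concentrations between 1 and 10,000 nM, in duplicate. Thawed mononuclear cells purified by Ficoll from AML or CML patients were added at 10,000 cells/well in RPMI 1640 with 10% FBS for 72 h. Viability by CellTiter-Glo was normalised to DMSO and 10 μM proteasome-inhibitor wells. Where stated, area under the curve was taken from log-logistic fits made with the drc and PharmacoGx R packages, each fit having four parameters.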

[3] = system: myeloid leukemia patient primary cells Pat.6; assay: as above
How it was run: as §1

[4] = system: myeloid leukemia patient primary cells Pat.14; assay: as above
How it was run: as §1

[5] = system: myeloid leukemia patient primary cells Pat.13; assay: as above
How it was run: as §1

[6] = system: myeloid leukemia patient primary cells Pat.1; assay: as above
How it was run: as §1

[7] = system: myeloid leukemia patient primary cells Pat.8; assay: as above
How it was run: as §1

[8] = system: myeloid leukemia patient primary cells Pat.10; assay: as above
How it was run: as §1

[9] = system: myeloid leukemia patient primary cells Pat.15; assay: as above
How it was run: as §1

[10] = system: myeloid leukemia patient primary cells Pat.3; assay: as above
How it was run: as §1

[11] = system: myeloid leukemia patient primary cells Pat.4; assay: as above
How it was run: as §1

[12] = system: myeloid leukemia patient primary cells Pat.5; assay: as above
How it was run: as §1

[13] = system: myeloid leukemia patient primary cells Pat.12; assay: as above
How it was run: as §1

[14] = system: myeloid leukemia patient primary cells Pat.11; assay: as above
How it was run: as §1

[15] = system: myeloid leukemia patient primary cells Pat.9; assay: as above
How it was run: as §1

[16] = system: myeloid leukemia patient primary cells Pat.2; assay: as above
How it was run: as §1

KU-812 = system: KU-812
How it was run: (§2)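 Fifteen myeloid leukaemia cell lines were seeded in RPMI 1640 at a density titrated to the linear growth range. Each line went into 384-well plates with compounds acoustically pre-printed at five tenfold doses from 1 to 10,000 nM, in duplicate, and was incubated for 72 h at 37 °C with 5% CO2. Luminescent ATP viability was normalised to vehicle and to a positive control at 10 µM. The IC50 came from four-parameter log-logistic dose–response fits.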

MV4-11 = system: MV4-11
How it was run: as §2

KG-1 = system: KG-1
How it was run: as §2

HL-60 = system: HL-60
How it was run: as §2

K-562 = system: K-562
How it was run: as §2

BV-173 = system: BV-173
How it was run: as §2

NOMO-1 = system: NOMO-1
How it was run: as §2

SHI-1 = system: SHI-1
How it was run: as §2

ML-2 = system: ML-2
How it was run: as §2

HEL = system: HEL
How it was run: as §2

Mono-Mac-6 = system: Mono-Mac-6
How it was run: as §2

THP-1 = system: THP-1
How it was run: as §2

LAMA-84 = system: LAMA-84
How it was run: as §2

MOLM-13 = system: MOLM-13
How it was run: as §2

O=C(Oc1cccc(F)c1OC(=O)c1cccc(O)c1)c1cccc(O)c1 [WZB117]
Details	IC50 (cell viability) [nM]	area under dose-response curve
BV-173	4560	–
HEL	> 10000	–
HL-60	9700	–
K-562	> 10000	–
KG-1	5350	–
KU-812	3880	–
LAMA-84	> 10000	–
ML-2	5890	–
MOLM-13	8470	–
MV4-11	2930	–
Mono-Mac-6	4740	–
NOMO-1	> 10000	–
SHI-1	> 10000	–
THP-1	> 10000	–
[1]	–	0.162

cell viability [%]
Details	1 nM	10 nM	100 nM	1000 nM	10000 nM
[2]	89.6	97.1	85.6	87.9	8.3
[3]	96.3	87.9	87.1	93.3	62.6
[4]	97.9	61.5	74	90.2	5.34
[5]	94.5	86.2	78.5	91	63.9
[6]	98	81.2	78	88.7	47.3
[7]	95.5	67.8	79.7	51.9	11
[8]	70.4	90.9	74.7	54.5	31.5
[9]	96.4	78.9	86.1	75.7	61.3
[10]	96.7	71.3	83	72.5	< 0
[11]	94.5	82.1	85.2	99	17.3
[12]	96.4	23.7	4.78	26.1	3.37
[13]	98.4	92.8	95.5	86.4	57
[14]	> 100	94.1	> 100	95.1	75.4
[15]	60.3	27.8	46.5	59.5	2.92
[16]	99.7	83.5	90.5	93.6	77.1

Nc1nc(O)c2c(CCc3ccc(C(=O)N[C@@H](CCC(=O)O)C(=O)O)cc3)c[nH]c2n1 [Pemetrexed]
Details	IC50 (cell viability) [nM]	area under dose-response curve
BV-173	381	–
HEL	116	–
HL-60	617	–
K-562	1660	–
KG-1	> 10000	–
KU-812	239	–
LAMA-84	58.5	–
ML-2	336	–
MOLM-13	305	–
MV4-11	425	–
Mono-Mac-6	312	–
NOMO-1	1370	–
SHI-1	2320	–
THP-1	7020	–
[1]	–	0.196

cell viability [%]
Details	1 nM	10 nM	100 nM	1000 nM	10000 nM
[2]	98.8	68.1	84.5	74.1	66.3
[3]	96.3	> 100	97.8	98.7	78.6
[4]	86.9	82.5	90.2	94.7	52.5
[5]	91.5	94.6	90.8	82.7	82
[6]	> 100	99.3	> 100	96.8	84.1
[7]	91.8	88.4	89.8	78.1	87.6
[8]	85.8	86	51.4	81.3	59.3
[9]	96.9	98.4	> 100	63.2	94.2
[10]	> 100	79.5	76.8	50.9	45.7
[11]	> 100	93.8	93.1	67.3	82.8
[12]	> 100	88.1	43.2	83.4	14.5
[13]	> 100	94.2	95.4	99.1	97.1
[14]	> 100	> 100	> 100	> 100	93.9
[15]	94.3	67.3	50.7	> 100	32.6
[16]	81.9	96.3	97.9	94.3	87.3

O=c1[nH]c(=O)n([C@H]2C[C@H](O)[C@@H](CO)O2)cc1I [Idoxuridine]
Details	IC50 (cell viability) [nM]	area under dose-response curve
BV-173	464	–
HEL	1470	–
HL-60	> 10000	–
K-562	4340	–
KG-1	> 10000	–
KU-812	> 10000	–
LAMA-84	5590	–
ML-2	2510	–
MOLM-13	4760	–
MV4-11	1630	–
Mono-Mac-6	6630	–
NOMO-1	> 10000	–
SHI-1	> 10000	–
THP-1	> 10000	–
[1]	–	< 0.0301

cell viability [%]
Details	1 nM	10 nM	100 nM	1000 nM	10000 nM
[2]	77.4	69.3	83.4	63	> 100
[3]	97.7	97.7	99.8	83.2	> 100
[4]	82.1	75.7	92.2	58.6	> 100
[5]	91	84.4	83.4	74.8	91.9
[6]	84.3	81.5	95	74.3	95.4
[7]	96.3	> 100	76.2	68.1	93.1
[8]	76.4	55.7	61.4	41.6	> 100
[9]	92.5	93.5	93.7	90.3	94.7
[10]	19.5	71.8	81.6	83.6	95.1
[11]	99.7	82.4	89.8	68.2	93.1
[12]	45.5	10.2	87.4	17.2	46.7
[13]	95.6	95.6	99	87.3	99.1
[14]	> 100	95.9	96.4	90.7	> 100
[15]	34.8	59.9	68.1	35.5	70.3
[16]	> 100	90	94.9	84.2	98.2

NS(=O)(=O)c1ccc(S(=O)(=O)Nc2cccc3c(Cl)c[nH]c23)cc1 [Indisulam]
Details	IC50 (cell viability) [nM]	area under dose-response curve
BV-173	856	–
HEL	7000	–
HL-60	7320	–
K-562	1430	–
KG-1	932	–
KU-812	540	–
LAMA-84	918	–
ML-2	703	–
MOLM-13	619	–
MV4-11	128	–
Mono-Mac-6	796	–
NOMO-1	1100	–
SHI-1	1280	–
THP-1	> 10000	–
[1]	–	0.137

cell viability [%]
Details	1 nM	10 nM	100 nM	1000 nM	10000 nM
[2]	93.3	77.1	91.3	43.1	21.2
[3]	99.9	98.2	> 100	81.5	63.2
[4]	75.2	84.3	85.7	62.6	66.6
[5]	92.6	91.3	98	57.4	44.8
[6]	94.5	> 100	94.1	65.2	48.8
[7]	89.9	91.6	97.5	79.2	55.5
[8]	55.5	64.9	97	81.4	> 100
[9]	90.2	90.8	75.9	79.2	44.1
[10]	84.5	> 100	> 100	72.9	34.2
[11]	91.4	87.2	86	28	9.12
[12]	47.7	70.8	62.1	17.9	12.4
[13]	89.5	95.5	89.6	96.9	85.2
[14]	93.9	> 100	> 100	86.3	72.1
[15]	47.8	84	81.1	40.9	24.6
[16]	> 100	88.2	95.8	96.9	67.1

Nc1ccn([C@@H]2O[C@H](CO)[C@@H](O)C2(F)F)c(=O)n1 [Gemcitabine]
Details	IC50 (cell viability) [nM]	area under dose-response curve
BV-173	2.13	–
HEL	3.46	–
HL-60	8.03	–
K-562	16.4	–
KG-1	6.1	–
KU-812	3.3	–
LAMA-84	8.97	–
ML-2	3.12	–
MOLM-13	3.11	–
MV4-11	1.88	–
Mono-Mac-6	3.01	–
NOMO-1	5.7	–
SHI-1	4.79	–
THP-1	6.87	–
[1]	–	0.782

cell viability [%]
Details	1 nM	10 nM	100 nM	1000 nM	10000 nM
[2]	52.6	3.48	95.9	65	16.3
[3]	77.8	84	98.2	91.2	81.8
[4]	52.8	44.5	> 100	67.4	25.8
[5]	89.5	84.5	90.2	86.3	36.4
[6]	83.4	92.9	99.6	76.6	54.5
[7]	76.5	71.6	91.5	85.4	33.7
[8]	67.4	32.6	64.3	45.5	7.03
[9]	96.3	80.8	82.5	78	41.8
[10]	61.9	22.1	25	7.9	4.31
[11]	75.4	93.4	82.8	62.2	32.2
[12]	4.78	2.01	88.3	27.6	2.39
[13]	96.3	95.9	98.4	92.4	82.8
[14]	95.3	91.6	> 100	83.6	67.2
[15]	3.95	6.11	56.7	15.4	6.78
[16]	90.2	95.4	98.4	82.9	48.5
